# Data from patent US8173638B2 (Boehringer Ingelheim International GmbH, priority 2006, dated 2012).
# Read-outs that look alike come from different tables or passages of the source.
# Molecular target: T1, human CB2R (Homo sapiens, UniProt P34972)
# T1 construct: host or cells: CHO cells
# Experiment: CB2R mediated modulation of cAMP synthesis
# Format: cell-based
# Details: for agonistic activity: found through the use of the described assays (CB2 agonists), qualitative statement; for Emax: 0.5 h, read-out: Agonist Efficacy (%)
# How it was run: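 Forskolin (10 uM)-driven cAMP in human CB2R-expressing CHO cells, read with DiscoverX-XS kit after 30 min compound exposure at 37 °C, 1 mM IBMX, 0.25% BSA. 100% defined as forskolin cAMP relative to 1 uM CP55940 inhibition. Agonist EC50 via four-parameter logistic model.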
# [1] = CHO cells expressing human CB2R, cAMP inhibited by 1 uM CP55940 defined as 100%
# T1 sequence (P34972 whole entry): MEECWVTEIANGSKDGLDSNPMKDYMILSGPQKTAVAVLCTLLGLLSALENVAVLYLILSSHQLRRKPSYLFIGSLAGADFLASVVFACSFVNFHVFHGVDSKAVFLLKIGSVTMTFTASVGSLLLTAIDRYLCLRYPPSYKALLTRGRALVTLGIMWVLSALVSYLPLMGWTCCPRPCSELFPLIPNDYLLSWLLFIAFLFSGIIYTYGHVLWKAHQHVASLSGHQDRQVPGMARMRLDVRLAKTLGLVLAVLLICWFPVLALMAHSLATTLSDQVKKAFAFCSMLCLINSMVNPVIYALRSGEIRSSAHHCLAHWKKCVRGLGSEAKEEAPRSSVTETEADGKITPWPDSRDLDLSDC
SMILES,agonistic activity,further results
"CCCCc1ccc(NC(=O)N2CCCN(C(=O)CCC(C)C)CC2)cc1 [4-(4-Methyl-pentanoyl)-[1,4]diazepane-1-carboxylic acid (4-butyl-phenyl)-amide]",agonistic activity,–
"O=C(Nc1ccc(Cl)c(Cl)c1)N1CCCN(C(=O)c2ccc(Cl)cc2)CC1 [4-(4-Chloro-benzoyl)-[1,4]diazepane-1-carboxylic acid (3,4-dichloro-phenyl)-amide]",agonistic activity,–
"CC(C)c1ccc(NC(=O)N2CCCN(C(=O)c3ccccc3)CC2)cc1 [4-Benzoyl-[1,4]diazepane-1-carboxylic acid (4-isopropyl-phenyl)-amide]",agonistic activity,–
"CCC(C)c1ccc(NC(=O)N2CCCN(C(=O)CC3CCCC3)CC2)cc1 (centres unmarked) [4-(2-Cyclopentyl-acetyl)-[1,4]diazepane-1-carboxylic acid (4-sec-butyl-phenyl)-amide]",agonistic activity,–
"CC(=O)N1CCc2ccc(NC(=O)N3CCCN(C(=O)CC4CCCC4)CC3)cc21 [4-(2-Cyclopentyl-acetyl)-[1,4]diazepane-1-carboxylic acid (1-acetyl-2,3-dihydro-1H-indol-6-yl)-amide]",agonistic activity,–
"O=C(CCC(F)(F)F)N1CCCN(C(=O)Nc2ccc3ccccc3c2)CC1 [4-(4,4,4-Trifluoro-butyryl)-[1,4]diazepane-1-carboxylic acid naphthalen-2-ylamide]",agonistic activity,–
"CC(C)c1ccc(NC(=O)N2CCCN(C(=O)c3ccccn3)CC2)cc1 [4-(Pyridine-2-carbonyl)-[1,4]diazepane-1-carboxylic acid (4-isopropyl-phenyl)-amide]",agonistic activity,–
"CC(c1ccc(NC(=O)N2CCCN(C(=O)N3CCS(=O)(=O)CC3)CC2)cc1)C(F)(F)F (centres unmarked) [4-(1,1-Dioxo-1λ^6-thiomorpholine-4-carbonyl)-[1,4]diazepane-1-carboxylic acid [4-(2,2,2-trifluoro-1-methyl-ethyl)-phenyl]-amide]",agonistic activity,–
"CC(C)c1ccc(NC(=O)N2CCCN(C(=O)CC(C)(C)C)CC2)cc1 [4-(3,3-Dimethyl-butyryl)-[1,4]diazepane-1-carboxylic acid (4-isopropyl-phenyl)-amide]",agonistic activity,–
"CC(=O)NC1CCC(C(=O)N2CCCN(C(=O)Nc3cc(C(C)(C)C)on3)CC2)CC1 (centres unmarked) [Compound 160, 4-(4-Acetylamino-cyclohexanecarbonyl)-[1,4]diazepane-1-carboxylic acid (5-tert-butyl-isoxazol-3-yl)-amide]",–,Emax [1]: 107%; EC50 (read-out: hCB2 cAMP EC50): 68 nM
"CCCCCc1ccc(NC(=O)N2CCCN(C(=O)CC3CCCC3)CC2)cc1 [4-(2-Cyclopentyl-acetyl)-[1,4]diazepane-1-carboxylic acid (4-n-pentyl-phenyl)-amide]",agonistic activity,–
"CCCCc1ccc(NC(=O)N2CCCN(C(=O)CC3CCOCC3)CC2)cc1 [4-(2-Tetrahydro-pyran-4-yl-acetyl)-[1,4]diazepane-1-carboxylic acid (4-butyl-phenyl)-amide]",agonistic activity,–
"O=C(Nc1ccc(SC(F)(F)F)cc1)N1CCCN(C(=O)C2CCCCC2)CC1 [4-Cyclohexanecarbonyl-[1,4]diazepane-1-carboxylic acid (4-trifluoromethylsulfanyl-phenyl)-amide]",agonistic activity,–
"CC(C)(C)c1ccc(NC(=O)N2CCCN(C(=O)CN3CCSCC3)CC2)cc1 [Compound 121, 4-(2-Thiomorpholin-4-yl-acetyl)-[1,4]diazepane-1-carboxylic acid (4-tert-butyl-phenyl)-amide]",–,Emax [1]: 103%; EC50 (read-out: hCB2 cAMP EC50): 36 nM
"O=C(CC1CCCC1)N1CCCN(C(=O)Nc2ccc(C(F)(F)F)cc2)CC1 [4-(2-Cyclopentyl-acetyl)-[1,4]diazepane-1-carboxylic acid (4-trifluoromethyl-phenyl)-amide]",agonistic activity,–
"CC(C)c1ccc(NC(=O)N2CCCN(C(=O)CC3CCCCC3)CC2)cc1 [Compound 36, 4-(2-Cyclohexyl-acetyl)-[1,4]diazepane-1-carboxylic acid (4-isopropyl-phenyl)-amide]",–,Emax [1]: 95%; EC50 (read-out: hCB2 cAMP EC50): 29 nM
"O=C(CCC1CC1)N1CCCN(C(=O)Nc2ccc3ccccc3c2)CC1 [4-(3-Cyclopropyl-propionyl)-[1,4]diazepane-1-carboxylic acid naphthalen-2-ylamide]",agonistic activity,–
"CC(C)(C)c1cc(NC(=O)N2CCCN(C(=O)C3CCC(F)(F)CC3)CC2)on1 [4-(4,4-Difluoro-cyclohexanecarbonyl)-[1,4]diazepane-1-carboxylic acid (3-tert-butyl-isoxazol-5-yl)-amide]",agonistic activity,–
"CC1(C(=O)N2CCCN(C(=O)Nc3cc(C(C)(C)C)on3)CC2)CCCCC1 [4-(1-Methyl-cyclohexanecarbonyl)-[1,4]diazepane-1-carboxylic acid (5-tert-butyl-isoxazol-3-yl)-amide]",agonistic activity,–

SMILES,agonistic activity,further results
"CC(C)(C)c1cc(NC(=O)N2CCCN(C(=O)C3CCS(=O)(=O)CC3)CC2)no1 [4-(1,1-Dioxo-hexahydro-1λ^6-thiopyran-4-carbonyl)-[1,4]diazepane-1-carboxylic acid (5-tert-butyl-isoxazol-3-yl)-amide]",agonistic activity,–
"CC(c1ccc(NC(=O)N2CCCN(C(=O)C3CCOCC3)CC2)cc1)C(F)(F)F (centres unmarked) [4-(Tetrahydro-pyran-4-carbonyl)-[1,4]diazepane-1-carboxylic acid [4-(2,2,2-trifluoro-1-methyl-ethyl)-phenyl]-amide]",agonistic activity,–
"N#Cc1ccc(C(=O)N2CCCN(C(=O)Nc3ccc4ccccc4c3)CC2)cc1 [Compound 88, 4-(4-Cyano-benzoyl)-[1,4]diazepane-1-carboxylic acid naphthalen-2-ylamide]",–,Emax [1]: 97%; EC50 (read-out: hCB2 cAMP EC50): 36 nM
"CCCCc1ccc(NC(=O)N2CCCN(C(=O)C3CCCC3)CC2)cc1 [4-Cyclopentanecarbonyl-[1,4]diazepane-1-carboxylic acid (4-butyl-phenyl)-amide]",agonistic activity,–
"O=C(CC1CCCC1)N1CCCN(C(=O)Nc2ccc(Cl)c(Cl)c2)CC1 [4-(2-Cyclopentyl-acetyl)-[1,4]diazepane-1-carboxylic acid (3,4-dichloro-phenyl)-amide]",agonistic activity,–
"Cc1nc(NC(=O)N2CCCN(C(=O)C3CCOCC3)CC2)sc1C(C)(C)C [Compound 183, 4-(Tetrahydro-pyran-4-carbonyl)-[1,4]diazepane-1-carboxylic acid (5-tert-butyl-4-methyl-thiazol-2-yl)-amide]",–,Emax [1]: 100%; EC50 (read-out: hCB2 cAMP EC50): 18 nM
"CCC(C)c1ccc(NC(=O)N2CCCN(C(=O)C3CCOCC3)CC2)cc1 (centres unmarked) [Compound 133, 4-(Tetrahydro-pyran-4-carbonyl)-[1,4]diazepane-1-carboxylic acid (4-sec-butyl-phenyl)-amide]",–,Emax [1]: 97%; EC50 (read-out: hCB2 cAMP EC50): 7.8 nM
"O=C(CC1CCCC1)N1CCCN(C(=O)Nc2ccc(Br)c(C(F)(F)F)c2)CC1 [Compound 132, 4-(2-Cyclopentyl-acetyl)-[1,4]diazepane-1-carboxylic acid (4-bromo-3-trifluoromethyl-phenyl)-amide]",–,Emax [1]: 104%; EC50 (read-out: hCB2 cAMP EC50): 13 nM
CCCCc1ccc(NC(=O)N2CCCN(C(=O)C3CCCCC3)CC2)cc1,agonistic activity,–
"O=C(Nc1ccc(C(F)(F)F)cc1)N1CCCN(C(=O)c2ccccc2)CC1 [4-Benzoyl-[1,4]diazepane-1-carboxylic acid (4-trifluoromethyl-phenyl)-amide]",agonistic activity,–
"CC(C)(C)c1cc(NC(=O)N2CCCN(C(=O)N3CC[S+]([O-])CC3)CC2)no1 [4-(1-Oxo-1λ^4-thiomorpholine-4-carbonyl)-[1,4]diazepane-1-carboxylic acid (5-tert-butyl-isoxazol-3-yl)-amide]",agonistic activity,–
"CC(C)(C)C(=O)N1CCCN(C(=O)Nc2cc(C(C)(C)C)on2)CC1 [4-(2,2-Dimethyl-propionyl)-[1,4]diazepane-1-carboxylic acid (5-tert-butyl-isoxazol-3-yl)-amide]",agonistic activity,–
"Cc1cccc(NC(=O)N2CCCN(C(=O)CCC3CCCC3)CC2)c1 [4-(3-Cyclopentyl-propionyl)-[1,4]diazepane-1-carboxylic acid m-tolylamide]",agonistic activity,–
"CC(C)(C)c1cnc(NC(=O)N2CCCN(C(=O)C3CCC(O)CC3)CC2)s1 (centres unmarked) [Compound 173, 4-(4-Hydroxy-cyclohexanecarbonyl)-[1,4]diazepane-1-carboxylic acid (5-tert-butyl-thiazol-2-yl)-amide]",–,Emax [1]: 111%; EC50 (read-out: hCB2 cAMP EC50): 17 nM
"O=C(Nc1cc(Cl)cc(Cl)c1)N1CCCN(C(=O)c2ccc(Cl)cc2)CC1 [4-(4-Chloro-benzoyl)-[1,4]diazepane-1-carboxylic acid (3,5-dichloro-phenyl)-amide]",agonistic activity,–
"O=C(Nc1ccc(C(F)(F)F)cc1)N1CCCN(C(=O)C2CCC(F)(F)CC2)CC1 [4-(4,4-Difluoro-cyclohexanecarbonyl)-[1,4]diazepane-1-carboxylic acid (4-trifluoromethyl-phenyl)-amide]",agonistic activity,–
CC(C)(C)c1cc(NC(=O)N2CCCN(C(=O)Nc3ccccc3)CC2)no1,agonistic activity,–
"CC(C)c1ccc(NC(=O)N2CCCN(C(=O)CC3CCCC3)CC2)cc1 [4-(2-Cyclopentyl-acetyl)-[1,4]diazepane-1-carboxylic acid (4-isopropyl-phenyl)-amide]",agonistic activity,–
"CC(C)(C)c1cc(NC(=O)N2CCCN(C(=O)c3ccc(C(F)(F)F)cc3)CC2)no1 [Compound 154, 4-(4-Trifluoromethyl-benzoyl)-[1,4]diazepane-1-carboxylic acid (5-tert-butyl-isoxazol-3-yl)-amide]",–,EC50: 1.5 nM; Emax (CHO): 103%
